Target: T1, human leukocyte elastase (HLE) (Homo sapiens, UniProt P08246)
T1 construct: purchased Calbiochem Lot 702038
T1 sequence (P08246 30-267): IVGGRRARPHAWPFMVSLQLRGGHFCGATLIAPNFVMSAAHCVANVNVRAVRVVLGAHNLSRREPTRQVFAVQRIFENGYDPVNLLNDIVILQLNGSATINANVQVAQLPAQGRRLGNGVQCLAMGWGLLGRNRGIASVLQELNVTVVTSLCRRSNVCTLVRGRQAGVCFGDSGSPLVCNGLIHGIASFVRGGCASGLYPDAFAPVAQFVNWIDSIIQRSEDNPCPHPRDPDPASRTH
Test: Kinetic parameters for HLE inhibition (release of 7-amino-4-methylcoumarin from N-methoxysuccinyl-alanylprolyl-valyl-7-amido-4-methylcoumarin, fluorescence detection)
Type: biochemical
Conditions: 37° C., 0.027 M pH 7.4 phosphate buffer, 1% DMSO, 1% MeCN, NaCl (I=0.15); for kon: read-out: kon (rate of formation of the HLE-inhibitor complex); for Ki: steady state, read-out: Ki^ss (apparent dissociation constant of the HLE-inhibitor complex at steady state)
Source text: Km =Michaelis constant for the enzyme-substrate pair (independently determined under the same experimental conditions).

kon [M⁻¹ s⁻¹] | Ki [nM] | Structure (SMILES)
150000 | 16 | COCC1=C(C(=O)SC(C)(C)C)N2C(=O)[C@H](Cl)[C@H]2S(=O)(=O)C1 [Comp. 59, t-Butyl 7S-chloro-3-methoxymethyl-8-oxo-5-thia-1-azabicyclo [4,2,0]oct-2-ene-5,5-dioxide-2-carbothiolate]
– | 4.3 | Cn1nnnc1SCC1=C(C(=O)SC(C)(C)C)N2C(=O)[C@H](Cl)[C@H]2S(=O)(=O)C1 [Comp. 60, t-Butyl 7S-chloro-3-(1-methyl-1,2,3,4-tetrazol-5-yl) thiomethyl-8-oxo-5-thia-1-azabicyclo[4,2,0]oct-2-ene-5,5-dioxide-2-carbothiolate]
480000 | 2.6 | CC(=O)OCC1=C(C(=O)SC(C)(C)C)N2C(=O)[C@H](Cl)[C@H]2S(=O)(=O)C1 [Comp. 3]

Structure (SMILES) | kon [M⁻¹ s⁻¹] | Ki [nM]
CC(=O)OCC1=C(C(=O)SCc2ccccc2)N2C(=O)[C@H](Cl)[C@H]2S(=O)(=O)C1 [Comp. 11, Benzyl 3-acetoxymethyl-7S-chloro-8-oxo-5-thia-1-azabicyclo-[4,2,0]oct-2-ene-5,5-dioxide-2-carbothiolate] | 1.26e+06 | 8.2

From patent US5356888A, “1,1-dioxo-cephem-4-carbothiolic acid derivatives” (Farmitalia Carlo Erba, priority 1988, dated 1994)
